Source: paper PMC8500839, “Structures of outer-arm dynein array on microtubule doublet reveal a motor coordination mechanism” (Nature Structural & Molecular Biology, 2021)

B1: outer-arm dynein intermediate chain IC2 (natural protein, T. thermophila, UniProt I7M008 1-667, looked up)
chain: MPPKQTKVVASRKTVMPISRAGRAQIRRKDSNTQNNMNDQGMEDEEIDQQREGMKNQYEQLTAQELNEDMPSKMLEPKNPQAPKNITVYDYYTRKFKTDELVDQMIVHFSMDGDYIWKESNEYKTQEEIRDTKKALIKEAMRKQESEEPGANHDEEAIKQTLRNKFNYNTRECQTINPSIRERGVSTEPPPSDTICGNITQWEIFDAYYAEIMKDHQIENKKKKEVDQDKKQDQSMYSTSFKRCCKIMERMVVQNDQEDKYHDYRYYWSQGDNLEAGKNEGHLLPIWRFSNEKQRKKNVTSICWNPLYPDLFAVSLGSYDFTKQRMGLICLYSLKNTTHPEYAFNCEAGVMCLDFHPKSAALLAVGLYDGTVLVYDIRNKHKKPIYQSTVRNQKHTDPVWQVKWNPDTSKNYNFYSISSDGRVMNWILMKNKLEPEEVILLRLVGKNEEESTLIGLACGLCFDFNKFEPHIFLVGTEEGKIHKCSRAYSGQYQETYNGHLLAVYKVKWNNFHPRTFISASADWTVRIWDSKYTSQIICFDLSMMVVDAVWAPYSSTVFACATMDKVQVYDLNVDKLNKLAEQKIVKQPKLTNLSFNYKDPILLVGDSHGGVTLVKLSPNLCKSGPEIKQTEDKKAMEEFKNVKIEDYEREKMENLLAVVSKWEREDA
notes: outer-arm dynein intermediate chain 2, T. thermophila, native subunit; source: purified from T. thermophila cilia as a subunit of native OAD (high salt extraction, sucrose gradient, ion exchange)

Key:
[1] = biological target: T1, β-HC (β-motor domain) of T. thermophila OAD (Tetrahymena thermophila, UniProt I7M9J2); assay: cryo-EM structure of OAD-MTD array; assay type: binding; details: Mg2+, no nucleotide added (apo state, co-purified)
T1 construct: gene TTHERM_00499300; from cilia

[2] = biological target: T2, α-HC (α-motor domain) of T. thermophila OAD (Tetrahymena thermophila, UniProt Q22A67); assay: cryo-EM structure of OAD-MTD array; assay type: binding; details: Mg2+, no nucleotide added (apo state, co-purified)
T2 construct: gene TTHERM_01276420; from cilia
T2 sequence (Q22A67 1-4620): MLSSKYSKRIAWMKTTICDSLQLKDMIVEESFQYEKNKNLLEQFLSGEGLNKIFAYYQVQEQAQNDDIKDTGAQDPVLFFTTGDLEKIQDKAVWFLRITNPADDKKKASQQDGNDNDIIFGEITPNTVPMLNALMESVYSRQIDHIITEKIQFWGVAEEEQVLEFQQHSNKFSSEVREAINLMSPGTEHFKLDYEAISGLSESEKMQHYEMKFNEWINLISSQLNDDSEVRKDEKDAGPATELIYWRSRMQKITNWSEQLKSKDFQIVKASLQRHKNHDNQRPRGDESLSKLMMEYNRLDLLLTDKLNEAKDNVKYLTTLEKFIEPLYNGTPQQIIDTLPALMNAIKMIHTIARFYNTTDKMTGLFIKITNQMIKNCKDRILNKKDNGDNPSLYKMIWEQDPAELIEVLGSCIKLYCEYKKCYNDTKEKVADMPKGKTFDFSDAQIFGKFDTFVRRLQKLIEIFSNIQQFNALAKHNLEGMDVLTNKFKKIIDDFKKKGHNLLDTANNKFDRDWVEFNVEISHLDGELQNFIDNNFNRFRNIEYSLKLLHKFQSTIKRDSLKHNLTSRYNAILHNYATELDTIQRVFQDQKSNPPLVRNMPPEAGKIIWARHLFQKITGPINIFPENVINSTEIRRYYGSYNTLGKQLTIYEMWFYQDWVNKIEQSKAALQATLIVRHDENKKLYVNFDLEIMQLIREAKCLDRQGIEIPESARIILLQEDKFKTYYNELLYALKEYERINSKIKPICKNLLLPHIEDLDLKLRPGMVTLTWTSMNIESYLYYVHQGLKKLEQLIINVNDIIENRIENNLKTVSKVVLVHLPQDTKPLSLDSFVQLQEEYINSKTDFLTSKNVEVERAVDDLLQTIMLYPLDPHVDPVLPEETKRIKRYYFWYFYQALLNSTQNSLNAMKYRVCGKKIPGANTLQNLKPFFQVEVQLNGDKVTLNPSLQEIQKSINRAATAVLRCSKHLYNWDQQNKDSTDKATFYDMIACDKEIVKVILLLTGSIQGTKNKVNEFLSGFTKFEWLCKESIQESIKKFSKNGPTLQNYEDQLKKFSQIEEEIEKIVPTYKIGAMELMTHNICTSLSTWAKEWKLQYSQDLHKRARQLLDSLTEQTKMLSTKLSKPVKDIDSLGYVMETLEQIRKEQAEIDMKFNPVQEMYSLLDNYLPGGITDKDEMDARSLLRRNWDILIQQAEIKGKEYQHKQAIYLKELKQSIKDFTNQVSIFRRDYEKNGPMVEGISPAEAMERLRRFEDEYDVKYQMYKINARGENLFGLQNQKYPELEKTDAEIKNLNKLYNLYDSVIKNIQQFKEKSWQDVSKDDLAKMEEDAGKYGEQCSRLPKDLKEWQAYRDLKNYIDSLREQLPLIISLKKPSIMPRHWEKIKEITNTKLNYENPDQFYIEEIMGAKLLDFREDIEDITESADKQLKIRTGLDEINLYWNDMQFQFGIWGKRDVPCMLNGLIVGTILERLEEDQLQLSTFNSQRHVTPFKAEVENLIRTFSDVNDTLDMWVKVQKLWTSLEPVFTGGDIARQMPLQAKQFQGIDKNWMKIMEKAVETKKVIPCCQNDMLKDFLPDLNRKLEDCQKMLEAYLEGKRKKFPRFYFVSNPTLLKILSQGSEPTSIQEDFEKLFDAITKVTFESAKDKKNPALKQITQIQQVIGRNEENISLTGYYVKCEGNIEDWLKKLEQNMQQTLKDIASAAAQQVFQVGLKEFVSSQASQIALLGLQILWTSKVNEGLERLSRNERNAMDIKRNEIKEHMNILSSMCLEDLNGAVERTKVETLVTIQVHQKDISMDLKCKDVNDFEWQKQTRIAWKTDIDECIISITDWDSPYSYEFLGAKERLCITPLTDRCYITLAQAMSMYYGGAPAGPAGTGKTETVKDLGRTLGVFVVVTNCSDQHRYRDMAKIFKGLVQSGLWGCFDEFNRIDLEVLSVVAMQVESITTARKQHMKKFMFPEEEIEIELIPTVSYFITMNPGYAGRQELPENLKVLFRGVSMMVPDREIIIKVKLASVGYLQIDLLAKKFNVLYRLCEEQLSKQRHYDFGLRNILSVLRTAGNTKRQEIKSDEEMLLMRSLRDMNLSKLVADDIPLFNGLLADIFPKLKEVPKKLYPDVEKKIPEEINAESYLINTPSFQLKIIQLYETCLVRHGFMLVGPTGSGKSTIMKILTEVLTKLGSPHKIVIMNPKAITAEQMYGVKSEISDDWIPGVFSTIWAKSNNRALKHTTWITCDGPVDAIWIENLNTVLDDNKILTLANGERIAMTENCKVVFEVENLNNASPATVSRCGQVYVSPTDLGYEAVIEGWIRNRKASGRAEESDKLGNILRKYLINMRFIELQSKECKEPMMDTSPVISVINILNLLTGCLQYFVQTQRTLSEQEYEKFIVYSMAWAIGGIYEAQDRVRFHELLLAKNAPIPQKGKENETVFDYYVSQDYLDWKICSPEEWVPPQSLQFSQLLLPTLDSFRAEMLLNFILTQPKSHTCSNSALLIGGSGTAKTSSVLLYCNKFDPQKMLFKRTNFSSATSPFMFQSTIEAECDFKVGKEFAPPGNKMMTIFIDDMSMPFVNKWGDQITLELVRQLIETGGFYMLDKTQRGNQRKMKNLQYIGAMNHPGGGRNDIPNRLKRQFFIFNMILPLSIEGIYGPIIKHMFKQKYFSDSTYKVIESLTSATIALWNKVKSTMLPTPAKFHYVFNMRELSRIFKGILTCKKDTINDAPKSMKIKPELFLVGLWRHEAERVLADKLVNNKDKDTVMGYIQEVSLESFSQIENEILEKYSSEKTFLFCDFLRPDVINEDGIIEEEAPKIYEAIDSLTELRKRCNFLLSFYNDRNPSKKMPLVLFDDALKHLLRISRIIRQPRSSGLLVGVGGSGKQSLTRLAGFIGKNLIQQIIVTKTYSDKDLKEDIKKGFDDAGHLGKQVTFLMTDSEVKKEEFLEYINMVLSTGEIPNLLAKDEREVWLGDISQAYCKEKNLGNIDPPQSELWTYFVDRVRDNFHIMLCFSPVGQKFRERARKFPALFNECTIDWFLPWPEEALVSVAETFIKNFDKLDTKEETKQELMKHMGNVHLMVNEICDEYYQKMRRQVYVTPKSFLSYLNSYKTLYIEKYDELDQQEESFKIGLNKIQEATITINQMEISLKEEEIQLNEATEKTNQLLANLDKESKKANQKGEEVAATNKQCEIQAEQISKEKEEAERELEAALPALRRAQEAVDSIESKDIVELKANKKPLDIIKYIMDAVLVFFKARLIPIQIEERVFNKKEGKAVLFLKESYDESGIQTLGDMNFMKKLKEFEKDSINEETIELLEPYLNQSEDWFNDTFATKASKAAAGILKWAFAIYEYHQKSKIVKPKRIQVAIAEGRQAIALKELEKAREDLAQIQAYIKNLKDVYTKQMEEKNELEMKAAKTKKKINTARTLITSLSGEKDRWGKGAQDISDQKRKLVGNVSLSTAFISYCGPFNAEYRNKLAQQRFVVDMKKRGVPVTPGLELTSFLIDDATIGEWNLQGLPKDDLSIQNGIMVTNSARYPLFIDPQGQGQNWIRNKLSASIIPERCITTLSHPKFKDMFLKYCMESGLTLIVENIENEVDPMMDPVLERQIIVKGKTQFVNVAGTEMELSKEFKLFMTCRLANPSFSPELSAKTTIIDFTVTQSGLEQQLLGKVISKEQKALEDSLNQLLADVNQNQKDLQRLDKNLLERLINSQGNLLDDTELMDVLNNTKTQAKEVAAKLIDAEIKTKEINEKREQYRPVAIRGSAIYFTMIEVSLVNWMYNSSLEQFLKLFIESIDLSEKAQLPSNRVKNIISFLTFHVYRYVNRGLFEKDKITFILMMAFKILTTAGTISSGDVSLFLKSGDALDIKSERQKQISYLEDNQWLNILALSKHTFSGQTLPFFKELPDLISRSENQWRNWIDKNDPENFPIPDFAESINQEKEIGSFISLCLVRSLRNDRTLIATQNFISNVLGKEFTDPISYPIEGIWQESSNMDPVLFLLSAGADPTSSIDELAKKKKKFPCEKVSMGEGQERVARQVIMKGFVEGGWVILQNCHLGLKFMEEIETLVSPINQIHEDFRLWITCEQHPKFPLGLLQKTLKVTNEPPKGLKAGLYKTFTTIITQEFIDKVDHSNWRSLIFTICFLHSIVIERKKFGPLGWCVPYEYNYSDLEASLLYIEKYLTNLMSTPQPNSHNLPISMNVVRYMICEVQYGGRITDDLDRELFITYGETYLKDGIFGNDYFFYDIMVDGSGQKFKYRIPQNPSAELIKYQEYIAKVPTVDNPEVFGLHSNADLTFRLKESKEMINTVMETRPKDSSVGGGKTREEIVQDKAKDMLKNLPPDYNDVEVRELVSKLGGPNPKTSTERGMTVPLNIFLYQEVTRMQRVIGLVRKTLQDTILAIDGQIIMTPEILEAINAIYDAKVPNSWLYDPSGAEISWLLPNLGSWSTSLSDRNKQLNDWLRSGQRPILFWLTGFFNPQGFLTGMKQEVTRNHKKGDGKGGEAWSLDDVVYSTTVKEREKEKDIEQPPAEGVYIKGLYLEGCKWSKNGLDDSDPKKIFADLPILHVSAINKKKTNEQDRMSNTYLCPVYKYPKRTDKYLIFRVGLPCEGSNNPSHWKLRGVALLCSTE

[3] = biological target: T3, γ-HC (γ-motor domain) of T. thermophila OAD (Tetrahymena thermophila, UniProt I7M6H4); assay: cryo-EM structure of OAD-MTD array; assay type: binding; details: Mg2+, no nucleotide added (apo state, co-purified)
T3 construct: gene TTHERM_00486600; from cilia

[4] = biological target: T4, outer-arm dynein (OAD) (Tetrahymena thermophila, UniProt I7M6H4+I7M9J2+Q22A67); assay: negative-stain EM of OAD coverage on MTD; microtubule gliding assay; assay type: biochemical; details: 1 mM ATP; 45 nM OAD; 20 mM HEPES pH 7.4, 100 mM KCl, 5 mM MgSO4, 1 mM DTT
T4 construct: gene TTHERM_01276420; native OAD, high-salt extract of axonemes, sucrose gradient and ion exchange; not cross-linked; with Dynein intermediate chain 2; Dynein intermediate chain 3; Dynein light chain LC7-a (LC7A homolog); Dynein light chain LC7B; Dynein light chain LC10; Dynein light chain DLC82; Dynein light chain LC8E; Dynein light chain LC8-2b; Dynein light chain LC8-3a; Dynein light chain LC8-3b; Dynein light chain Tctex-a; Dynein light chain LC2A; Dynein light chain LC4A; Dynein light chain LC3BL; Dynein light chain 1

[5] = biological target: T4, outer-arm dynein (OAD); assay: negative-stain EM count of OAD array length / coverage on MTD; assay type: biochemical; details: 10 to 1,000 μM ATPγS; slowly hydrolysed; 45 nM OAD; 20 mM HEPES pH 7.4, 100 mM KCl, 5 mM MgSO4, 1 mM DTT
[6] = biological target: T5, outer-arm dynein intermediate chain IC3 (T. thermophila, UniProt Q23FU1 1-670); assay: cryo-EM structure; freshly purified native OAD (not cross-linked) reconstituted on MTD in 20 mM HEPES pH 7.4, 100 mM KCl, 5 mM MgSO4, 1 mM DTT, on ice 45 min; apo state, no docking complex; two classes MTBS-1 and MTBS-2; MTD lattice refined from the same data; details: both partners purified
T5 construct: outer-arm dynein intermediate chain 3, T. thermophila, native subunit; source: purified from T. thermophila cilia as a subunit of native OAD (high salt extraction, sucrose gradient, ion exchange)
T5 sequence (looked up): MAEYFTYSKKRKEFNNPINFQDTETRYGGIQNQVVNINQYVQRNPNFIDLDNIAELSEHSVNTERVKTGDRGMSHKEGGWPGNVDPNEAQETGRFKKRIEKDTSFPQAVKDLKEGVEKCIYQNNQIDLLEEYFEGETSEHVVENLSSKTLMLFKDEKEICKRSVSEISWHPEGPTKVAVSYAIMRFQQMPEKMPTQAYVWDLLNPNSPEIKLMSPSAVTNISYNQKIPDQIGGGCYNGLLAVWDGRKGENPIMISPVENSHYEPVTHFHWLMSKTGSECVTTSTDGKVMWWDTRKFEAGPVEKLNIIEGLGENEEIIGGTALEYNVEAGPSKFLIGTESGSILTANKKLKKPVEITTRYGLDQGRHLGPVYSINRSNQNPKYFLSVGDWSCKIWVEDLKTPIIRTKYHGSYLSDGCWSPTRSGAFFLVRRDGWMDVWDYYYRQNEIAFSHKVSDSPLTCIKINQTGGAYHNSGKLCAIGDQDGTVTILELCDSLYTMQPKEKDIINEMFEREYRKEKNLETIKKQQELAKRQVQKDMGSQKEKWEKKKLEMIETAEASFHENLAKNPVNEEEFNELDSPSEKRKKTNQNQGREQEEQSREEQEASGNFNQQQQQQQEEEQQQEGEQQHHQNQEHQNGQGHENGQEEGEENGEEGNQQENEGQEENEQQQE

[7] = biological target: B1; assay: as above; details: both partners purified
[8] = sites AAA3 and AAA4 (same state as β-HC)

Molecule: Nc1ncnc2c1ncn2[C@@H]1O[C@H](COP(=O)(O)OP(=O)(O)O)[C@@H](O)[C@H]1O [ADP]
- cryo-EM structure of OAD-MTD array ([1]; sites AAA3 and AAA4): ATP in β-AAA2 and ADP in β-AAA3/AAA4 were unambiguously identified from the density.
- cryo-EM structure of OAD-MTD array [2, 8]: Other motor domains have the same nucleotide binding states.
- cryo-EM structure of OAD-MTD array [3, 8]: Other motor domains have the same nucleotide binding states.

Molecule: Nc1ncnc2c1ncn2[C@@H]1O[C@H](COP(=O)(O)OP(=O)(O)OP(=O)(O)O)[C@@H](O)[C@H]1O [ATP]
- negative-stain EM of OAD coverage on MTD; microtubule gliding assay [4]: fell off the MTDs in the presence of ATP, ADP·Vi or ATPγS
- cryo-EM structure of OAD-MTD array ([1]; site AAA2): ATP in β-AAA2 and ADP in β-AAA3/AAA4 were unambiguously identified from the density.
- cryo-EM structure of OAD-MTD array ([2]; site AAA2 (same state as β-HC)): Other motor domains have the same nucleotide binding states.
- cryo-EM structure of OAD-MTD array ([3]; site AAA2 (same state as β-HC)): Other motor domains have the same nucleotide binding states.

Molecule: Nc1ncnc2c1ncn2[C@@H]1O[C@H](COP(=O)(O)OP(=O)(O)OP(O)(O)=S)[C@@H](O)[C@H]1O [ATPγS]
- negative-stain EM count of OAD array length / coverage on MTD [5]: Using a titration of ATPγS, we were able to gradually shorten OAD arrays in vitro

Molecule: B1
- binding result [6]: binds

B2: Tctex-b (LC2A) (natural protein, T. thermophila, UniProt C0HME8 1-132, looked up)
chain: MKGTYLYLNIYKRKREASLITLNYIKNRFYPSKIQKIIKELFEDRLKGVEYDPNNANQLSERLVLELREKIKRGKVPRYKIGVQVVFGEIKGQGLRIASKCLWDVQNDNYASYTYTSEKVYCTGIVFGCYFE
notes: light chain LC2A, the best hit for the Tctex-b position, T. thermophila; source: purified from T. thermophila cilia as a subunit of native OAD (high salt extraction, sucrose gradient, ion exchange)
- binding result [6]: binds
- binding result [7]: binds
